“Also recorded” adds a separate entry of the source.
Target: T1, DPAGT1 (Homo sapiens, UniProt Q9H3H5)
T1 construct: full-length DPAGT1 bearing an additional tobacco etch virus (TEV) protease-cleavable N-terminal His6 tag; His6 with TEV protease cleavage site ([…]/S leader) (N, cleaved yes); made in house; host or cells: Spodoptera frugiperda Sf9 insect cells (baculovirus, pFB-LIC-Bse vector)
T1 sequence (Q9H3H5 with tags, fused parts or gaps): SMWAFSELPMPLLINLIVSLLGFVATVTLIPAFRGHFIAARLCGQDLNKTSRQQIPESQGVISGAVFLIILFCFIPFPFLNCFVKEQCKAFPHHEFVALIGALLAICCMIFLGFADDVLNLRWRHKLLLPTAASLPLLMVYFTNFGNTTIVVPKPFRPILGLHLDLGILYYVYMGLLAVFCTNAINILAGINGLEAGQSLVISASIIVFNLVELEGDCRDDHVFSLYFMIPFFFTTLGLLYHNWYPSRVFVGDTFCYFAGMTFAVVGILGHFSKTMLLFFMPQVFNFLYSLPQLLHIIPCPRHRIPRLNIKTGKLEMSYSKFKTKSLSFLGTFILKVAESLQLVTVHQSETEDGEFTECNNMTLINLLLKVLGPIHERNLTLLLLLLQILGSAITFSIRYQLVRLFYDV
Experiment: DPAGT1 radiometric in vitro activity assay (end point, phosphorimaging of radio-TLC)
Format: biochemical
Details: for % Activity of DPAGT1 in the presence of a tunicamycin analogue compared to a negative control (GFB): Table S1, analogue 1 µM, DPAGT1 1 µM, dolichyl monophosphate 50 µM, UDP-GlcNAc(1-14C) 50 µM, 37 °C, 21 min, three biological replicates; for DPAGT1 inhibition (in words) / activity at 1 µM: inhibitor 1 µM; for DPAGT1 inhibition (in words): enzyme:inhibitor 1:1, substrates 50 µM; for activity at 1 µM: enzyme:inhibitor 1:1, read-out: retained DPAGT1 activity (% of WT activity)
Description: Figure 2 Design, synthesis and in vitro inhibitory activity of lipid-altered tunicamycins. (A) Structure of DPAGT1 in complex with tunicamycin[21] showing key interactions primarily along TMH5 that in concert with a Trp122 “lid” create the lipid-engagement site (blue). This engagement contrasts with a small, gated pocket below bounded primarily by Leu293 in which only smaller moieties (here an acetamide) are accommodated (red). (B) Guided by this structure, as an apparent snapshot of a Michaelis complex-like mode of binding, modulation at two acyl sites in the core scaffold was explored. […] Semisynthesis allowed generation of graduated lipid tunicamycin analogues through regiochemical differentiation in carbamoylation to generate two key divergent intermediates: Tun-0E,0G and Tun-0E,2G. Subsequent differential acylations allow for generation of both symmetric and asymmetric Tun-XE,YG analogues. Reagents and conditions: (a) Ac2O, pyridine; (b) Boc2O, DMAP, THF; (c) NaOMe, MeOH; (d) 4 M HCl in dioxane, MeOH; (e) HATU, DIPEA, octanoic acid, DMF; (f) HATU, DIPEA, carboxylic acid; (g) HATU, DIPEA, 2 × carboxylic acid. (C) Residual % in vitro activity of DPAGT1 following incubation with analogues [DPAGT1 ([…]), MgCl2 (5 mM), Tun analogue ([…]), dolichol phosphate ([…]), and UDP-GlcNAc(1-^14C) ([…]) in 1% OGNG/CHS/cardiolipin] was assessed through end point assay at 37 °C via phosphorimaging. These were determined on the basis of three biological replicates, each using three technical replicates. Error bars shown are standard deviations.
The intended targeting and graduated modulation of DPAGT1’s PNPT activity was assessed in vitro using a highly pure recapitulated source. Briefly, full-length DPAGT1 bearing an additional tobacco etch virus (TEV) protease-cleavable N-terminal His6 tag was expressed using a baculovirus (DH10Bac)/insect cell (Spodoptera frugiperda Sf9) system using a pFB-LIC-Bse expression vector. DPAGT1 is an integral transmembrane enzyme, and thus, after harvesting and lysis, protein was extracted from the expression host membrane fraction using octyl glucose neopentyl glycol (OGNG) (1% w/v) and cholesterylhemisuccinate (CHS) (0.1% w/v) before isolation and purification by immobilized metal affinity chromatography (IMAC) using a Co^2+-charged (“TALON”) resin and elution with an imidazole gradient. To ensure that there were no confounding effects of the His6 tag, this was then cleaved with TEV protease followed by reverse IMAC and size exclusion chromatography in sequence.
Radiometric bisubstrate analyses allowed excellent sensitivity under the conditions necessary for proper recapitulation of the activity. Purified DPAGT1 (1 μM) was incubated with both substrates, dolichol monophosphate and radiolabeled UDP-N-acetyl-D-[1-^14C]glucosamine, at 50 μM, and the activity was determined directly by end point phosphor detection of product dolichol-PP-N-acetyl-D-[1-^14C]glucosamine formation.
MgCl2, 10 mM imidazole (pH 8.0), 200 mM NaCl , 2 mM TCEP (added fresh), 5% Glycerol, 0.18% OGNG, 0.01 8% CHS, 0.0036% cardiolipin) and the protein was eluted with WB supplemented with 250 mM imidazole (pH 8.0). The eluted protein was desalted using PD-10 columns (GE Healthcare) pre-equilibrated with gel filtration buffer (GFB: 20 mM HEPES (pH […]
cardiolipin). Desalted protein was subsequently treated with 10:1 TEV protease (w:w, protein:enzyme) overnight at 4 ° C. The TEV protease treated protein was separated from the 6-His-tagged enzymes and uncleaved DPAGT1 by incubation for 1 h with Talon resin (prepared as described above) at 4 °C for 1 h. The resin was collected in a column, the flowthrough collected and the protein sample was centrifuged at 21,500 rpm in a Beckman TA25.5 rotor for 10 min at 4 ° C. The supernatant was then concentrated to 0.5 mL using a 30 kDa cutoff PES concentrator (Corning), with mixing every 5 mins during concentration. The […]

## CCCCCCCCC(=O)N[C@H]1[C@@H](O[C@@H]2O[C@H](C[C@@H](O)[C@H]3O[C@@H](n4ccc(=O)[nH]c4=O)[C@H](O)[C@@H]3O)[C@H](O)[C@H](O)[C@H]2NC(=O)CCC)O[C@H](CO)[C@@H](O)[C@@H]1O [Tun-4E,9G]
  % Activity of DPAGT1 in the presence of a tunicamycin analogue compared to a negative control (GFB): 93.6%
  DPAGT1 inhibition (in words): little to no significant inhibition; also recorded: minimal DPAGT1 inhibition

## CCCCCCCC(=O)N[C@H]1[C@H](O[C@H]2O[C@H](CO)[C@@H](O)[C@H](O)[C@H]2NC(C)=O)O[C@H](C[C@@H](O)[C@H]2O[C@@H](n3ccc(=O)[nH]c3=O)[C@H](O)[C@@H]2O)[C@H](O)[C@@H]1O [Tun-8E,2G]
  % Activity of DPAGT1 in the presence of a tunicamycin analogue compared to a negative control (GFB): 35.4%
  DPAGT1 inhibition (in words): increasing inhibitory activity in a graduated manner
  activity at 1 µM: 35%

## CCCCCCCCC(=O)N[C@H]1[C@H](O[C@H]2O[C@H](CO)[C@@H](O)[C@H](O)[C@H]2NC(=O)CCCCCCCC)O[C@H](C[C@@H](O)[C@H]2O[C@@H](n3ccc(=O)[nH]c3=O)[C@H](O)[C@@H]2O)[C@H](O)[C@@H]1O [Tun-9E,9G]
  % Activity of DPAGT1 in the presence of a tunicamycin analogue compared to a negative control (GFB): 79.6%
  DPAGT1 inhibition (in words): little to no significant inhibition; also recorded: minimal DPAGT1 inhibition

## CCCCCCCCC(=O)N[C@H]1[C@H](O[C@H]2O[C@H](CO)[C@@H](O)[C@H](O)[C@H]2NC(=O)CC(C)C)O[C@H](C[C@@H](O)[C@H]2O[C@@H](n3ccc(=O)[nH]c3=O)[C@H](O)[C@@H]2O)[C@H](O)[C@@H]1O [Tun-9E,i5G]
  % Activity of DPAGT1 in the presence of a tunicamycin analogue compared to a negative control (GFB): 54.8%
  DPAGT1 inhibition (in words): increasing inhibitory activity in a graduated manner
  activity at 1 µM: 55%

## tunicamycin [reference compound]
  % Activity of DPAGT1 in the presence of a tunicamycin analogue compared to a negative control (GFB): 0.18%
  DPAGT1 inhibition (in words): complete inhibition

Source: PMC11758266, “Lipid-Modulated, Graduated Inhibition of N-Glycosylation Pathway Priming Suggests Wide Tolerance of ER Proteostasis to Stress” (ACS Central Science, 2024)
